In patent US20260166057A1, “1,3,5(10),16-ESTRATETRAEN-3-YL ACETATE FOR USE IN IMPROVING PSYCHOMOTOR OR COGNITIVE PERFORMANCE” (priority 2023, published 2026):
Read-outs that look alike come from different tables or passages of the source.

Columns and labels:
[1] = test system: subjects with major depressive disorder; test: Supplemental ETA with itruvone antidepressant therapy (Example 9); assay type: in vivo, human; conditions: ETA added to itruvone
Text: Itruvone (INN, pregn-4-en-20-yn-3-one) is being developed for the treatment of MDD and is an investigational product not approved by the Food and Drug Administration. The preparation and experimental treatment of MDD with this compound are described, for example, in Monti, U.S. patent Ser. No. 10/322,138, “Treatment of Depressive Disorders,”. Both itruvone and ETA are believed to have a common mechanism of action in terms of activating olfactory chemosensory neurons in the nasal mucosa, and then activating certain hypothalamic circuits in the brain without brain or systemic uptake. In subjects receiving itruvone treatment for major depressive disorder, ETA is administered to the olfactory epithelium as described in Example 4. […] Cognitive function and psychomotor performance improve in this group of subjects. Because itruvone also is administered to the olfactory epithelium in the form of a spray or aerosol, ETA and itruvone may be administered separately, but proximate in time, or co-formulated for simultaneous intranasal administration.

healthy male volunteers [2] = test: Time Estimation Test (cognitive performance) of the RTTET in mentally fatigued men; conditions: for Time Estimation test improvement: relative to placebo
[3] = test system: isolated human nasal olfactory chemosensory neurons; test: Electrophysiology: inward currents in isolated chemosensory neurons; assay type: cell-based
[4] = molecular target: rat glucocorticoid receptor (Rattus norvegicus, UniProt P06536); test: In vitro agonist/antagonist activity on steroid receptors; assay type: biochemical
healthy male volunteers [5] = test: Reaction Time Test (psychomotor performance) of the RTTET in mentally fatigued men; assay type: in vivo, human; conditions: for number of errors: relative to placebo, all three non-control tests; for variability in Reaction Time test: compared to caffeine and placebo; for effect on Reaction Time test compared with caffeine: midnight and 3 a.m. tests (subjects fatigued)
[6] = test system: subjects with peripartum depression; test: ETA in peripartum depression (Example 10); assay type: in vivo, human; conditions: as in Example 4
Procedure: In subjects experiencing decreased psychomotor and/or cognitive performance associated with peripartum depression, a therapeutically effective amount of ETA is administered to the olfactory epithelium as described in Example 4. ETA is administered separately from any other antidepressant therapy and is given sequentially or proximate in time to such other medications. Depressive scores reduce when the subjects are evaluated. Psychomotor and cognitive performance improve in this group of subjects.

rat progestin receptor = rat progestin receptor (Rattus norvegicus, UniProt Q63449); test: In vitro agonist/antagonist activity on steroid receptors; assay type: biochemical
male rats = test: Intravenous and intranasal administration to male rats; assay type: in vivo; conditions: 600 μg/Kg intravenous, 900 μg/Kg intranasal, 7-day period
vomeronasal organ = conditions: cited from earlier work
rat androgen receptor = rat androgen receptor (Rattus norvegicus, UniProt P15207); test: In vitro agonist/antagonist activity on steroid receptors; assay type: biochemical
[7] = Ames reverse mutation assay; assay type: cell-based
subjects with ADHD = test: ETA in ADHD (Example 11); assay type: in vivo, human; conditions: intranasal as in Example 4
Procedure: In subjects experiencing decreased psychomotor and/or cognitive performance associated with ADHD, a therapeutically effective amount of ETA is administered intranasally as described in Example 4. Psychomotor and cognitive performance improve in this group of subjects.

subjects with MDD = test: ETA supplementation in MDD subjects already receiving escitalopram (Example 8); assay type: in vivo, human; conditions: ETA added to escitalopram
Procedure: In subjects experiencing decreased psychomotor and/or cognitive performance in mental fatigue associated with MDD and already receiving treatment with escitalopram, a therapeutically effective amount of ETA is intranasally administered as described in Example 4 as a supplemental or adjunctive treatment. ETA is administered separately from the antidepressant treatment and is given sequentially or proximate in time to situations requiring attention and concentration. […] Psychomotor and cognitive performance improve in this group of subjects.

[8] = Onset of effect after nasal administration; assay type: in vivo, human
Text: Because of the rapid onset of effect of nasally administered ETA, and its safety, it is expected that ETA may be administered as needed once mental fatigue is sensed, for example immediately a mentally fatigued person senses sleepiness or a symptom of sleepiness (such as excessive yawning, closing the eyes, nodding of the head, etc.) or a decline in psychomotor or cognitive performance, to improve psychomotor and cognitive performance under those circumstances. It is also expected that ETA may be administered prophylactically to improve, or at least prevent the normal decline in, psychomotor and/or cognitive performance in persons who are, or are likely to become, mentally fatigued. Thus, for example, a firefighter, whose work schedule may require him or her to be available continuously for 72 hours even though he/she is allowed to sleep at night when not actually needed, might administer ETA to improve psychomotor and/or cognitive performance when awakened at night and called to fight a fire; or a pilot of an overnight flight, who flies the aircraft during an afternoon takeoff, rests during the overnight cruise portion of the flight, but then flies the aircraft again as it approaches and lands the next morning, might administer ETA to improve psychomotor and/or cognitive performance on rising from rest to perform the approach and landing.

bone marrow = test: In vivo bone marrow micronucleus test
[9] = test system: nasal septal olfactory chemosensory epithelium; test: Electrophysiology: depolarization of chemosensory epithelium; parameters: species or system human
rat estrogen receptor = test: In vitro agonist/antagonist activity on steroid receptors; assay type: biochemical
[10] = test system: subjects with mild cognitive impairment; test: ETA in mild cognitive impairment (Example 12); assay type: in vivo, human; conditions: intranasal as in Example 4
Procedure: In subjects experiencing decreased psychomotor and/or cognitive performance associated with mild cognitive impairment, a therapeutically effective amount of ETA is administered intranasally as described in Example 4. Psychomotor and cognitive performance improve in this group of subjects.

[11] = test system: subjects with shift work sleep disorder; test: ETA in mental fatigue associated with shift work sleep disorder (Example 5); assay type: in vivo, human; conditions: intranasal as in Example 4
Text: In subjects experiencing decreased psychomotor and/or cognitive performance in mental fatigue associated with shift work sleep disorder, a therapeutically effective amount of ETA is intranasally administered as described in Example 4. Psychomotor and cognitive performance improve in this group of subjects.

[12] = both men and women, more pronounced in men

Chain of rat progestin receptor (Q63449 whole entry): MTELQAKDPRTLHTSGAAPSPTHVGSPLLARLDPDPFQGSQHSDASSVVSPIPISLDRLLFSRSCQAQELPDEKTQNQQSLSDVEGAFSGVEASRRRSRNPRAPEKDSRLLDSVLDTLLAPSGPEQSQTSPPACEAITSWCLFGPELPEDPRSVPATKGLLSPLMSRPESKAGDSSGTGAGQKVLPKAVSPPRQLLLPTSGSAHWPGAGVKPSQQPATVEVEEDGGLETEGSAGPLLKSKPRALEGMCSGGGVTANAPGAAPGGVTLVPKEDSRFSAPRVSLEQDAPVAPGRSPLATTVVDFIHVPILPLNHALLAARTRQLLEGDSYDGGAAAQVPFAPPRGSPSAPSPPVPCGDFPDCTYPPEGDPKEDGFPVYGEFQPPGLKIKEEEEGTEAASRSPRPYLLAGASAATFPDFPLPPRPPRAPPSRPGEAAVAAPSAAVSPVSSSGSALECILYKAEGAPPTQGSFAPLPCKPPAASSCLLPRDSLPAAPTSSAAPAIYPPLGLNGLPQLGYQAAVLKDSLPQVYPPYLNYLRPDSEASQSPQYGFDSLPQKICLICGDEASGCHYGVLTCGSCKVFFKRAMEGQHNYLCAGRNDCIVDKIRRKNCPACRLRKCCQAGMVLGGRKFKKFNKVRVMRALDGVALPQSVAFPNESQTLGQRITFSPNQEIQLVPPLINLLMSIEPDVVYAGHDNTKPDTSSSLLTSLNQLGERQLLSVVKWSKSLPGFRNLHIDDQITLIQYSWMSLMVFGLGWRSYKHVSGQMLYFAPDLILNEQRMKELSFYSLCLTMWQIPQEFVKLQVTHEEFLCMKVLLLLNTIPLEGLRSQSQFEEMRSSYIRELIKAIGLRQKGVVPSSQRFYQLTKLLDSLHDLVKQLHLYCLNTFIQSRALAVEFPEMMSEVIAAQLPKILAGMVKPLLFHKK
Chain of rat androgen receptor (P15207 whole entry S389L): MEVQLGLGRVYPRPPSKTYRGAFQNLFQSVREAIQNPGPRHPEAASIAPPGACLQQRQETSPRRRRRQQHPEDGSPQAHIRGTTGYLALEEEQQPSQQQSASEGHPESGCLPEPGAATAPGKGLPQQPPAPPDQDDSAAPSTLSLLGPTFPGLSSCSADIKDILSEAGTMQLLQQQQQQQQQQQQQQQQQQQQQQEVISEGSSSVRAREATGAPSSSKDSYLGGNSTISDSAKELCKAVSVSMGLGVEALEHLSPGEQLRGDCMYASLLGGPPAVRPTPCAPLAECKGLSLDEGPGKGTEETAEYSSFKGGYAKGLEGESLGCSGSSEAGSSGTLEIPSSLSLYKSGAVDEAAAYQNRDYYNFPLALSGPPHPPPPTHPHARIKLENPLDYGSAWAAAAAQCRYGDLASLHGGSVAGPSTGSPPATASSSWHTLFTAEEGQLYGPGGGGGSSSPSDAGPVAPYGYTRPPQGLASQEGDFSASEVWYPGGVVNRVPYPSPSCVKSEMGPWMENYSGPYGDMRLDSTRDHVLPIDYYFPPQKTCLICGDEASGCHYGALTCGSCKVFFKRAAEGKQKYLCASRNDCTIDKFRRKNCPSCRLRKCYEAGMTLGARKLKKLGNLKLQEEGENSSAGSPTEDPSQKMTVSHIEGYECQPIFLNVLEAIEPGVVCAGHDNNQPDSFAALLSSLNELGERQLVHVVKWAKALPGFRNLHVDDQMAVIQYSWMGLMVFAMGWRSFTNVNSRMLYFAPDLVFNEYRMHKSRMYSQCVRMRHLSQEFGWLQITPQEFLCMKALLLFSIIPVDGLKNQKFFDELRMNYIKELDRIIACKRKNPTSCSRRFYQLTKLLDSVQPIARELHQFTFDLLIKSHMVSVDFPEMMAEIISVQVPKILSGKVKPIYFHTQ
Chain of rat glucocorticoid receptor (P06536 whole entry): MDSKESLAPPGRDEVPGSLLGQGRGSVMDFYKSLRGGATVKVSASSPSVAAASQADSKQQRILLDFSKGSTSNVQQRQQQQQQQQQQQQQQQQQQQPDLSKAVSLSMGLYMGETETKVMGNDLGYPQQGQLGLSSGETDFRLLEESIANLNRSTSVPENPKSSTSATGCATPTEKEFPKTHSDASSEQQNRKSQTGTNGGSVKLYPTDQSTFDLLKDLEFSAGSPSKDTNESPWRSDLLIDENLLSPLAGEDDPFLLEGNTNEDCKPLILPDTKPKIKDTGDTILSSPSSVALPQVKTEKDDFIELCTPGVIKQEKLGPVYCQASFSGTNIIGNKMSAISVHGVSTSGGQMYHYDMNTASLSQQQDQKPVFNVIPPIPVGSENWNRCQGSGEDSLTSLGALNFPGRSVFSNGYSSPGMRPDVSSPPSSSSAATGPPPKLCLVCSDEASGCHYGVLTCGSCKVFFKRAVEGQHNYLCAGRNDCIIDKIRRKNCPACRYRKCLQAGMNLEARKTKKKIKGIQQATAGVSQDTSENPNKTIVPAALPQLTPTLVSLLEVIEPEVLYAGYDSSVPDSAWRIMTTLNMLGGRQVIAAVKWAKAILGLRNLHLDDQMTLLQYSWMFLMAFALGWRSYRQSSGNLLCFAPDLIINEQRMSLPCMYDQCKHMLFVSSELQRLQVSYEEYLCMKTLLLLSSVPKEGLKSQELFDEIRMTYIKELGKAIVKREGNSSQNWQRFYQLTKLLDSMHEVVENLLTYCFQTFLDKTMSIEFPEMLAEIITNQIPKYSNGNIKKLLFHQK

**Q.** Which “cognitive function and psychomotor performance” value [1] does the source give for `CC(=O)Oc1ccc2c(c1)CC[C@@H]1[C@@H]2CC[C@]2(C)C=CC[C@@H]12` [ETA, 1,3,5(10),16-Estratetraen-3-yl acetate] here?
**A.** improve

**Q.** And the depressive scores [1]?
**A.** reduce beyond that of itruvone alone

**Q.** And the “Time Estimation test improvement” value (healthy male volunteers [2]; 3 a.m. test)?
**A.** significantly improved

**Q.** What about the “Time Estimation test improvement relative to caffeine” value (healthy male volunteers [2]; midnight and 3 a.m. tests, p<0.01) of the same compound?
**A.** significantly improved

**Q.** What about the “Time Estimation test improvement” value (healthy male volunteers [2]; midnight test) of the same compound?
**A.** significantly improved

**Q.** What about the “amplitude of the response” value ([3]; dependence on concentration) of the same compound?
**A.** increased depending on the concentration of the compound

**Q.** And the “inward currents in the membrane” value ([3]; isolated human neurons)?
**A.** induced inward currents

**Q.** And the “agonist or antagonist activity” value [4]?
**A.** no agonist or antagonist activity

**Q.** What about the number of errors (healthy male volunteers [5]; isochronous stimuli) of the same compound?
**A.** significantly decrease

**Q.** What about the “variability in Reaction Time test” value (healthy male volunteers [5]; isochronous) of the same compound?
**A.** less variability

**Q.** What about the “effect on Reaction Time test compared with caffeine” value (healthy male volunteers [5]; isochronous, p<0.001) of the same compound?
**A.** significantly better than the effect of caffeine

**Q.** And the number of errors (healthy male volunteers [5]; stochastic stimuli)?
**A.** significantly decrease

**Q.** What about the “variability in Reaction Time test” value (healthy male volunteers [5]; stochastic) of the same compound?
**A.** less variability

**Q.** What about the “effect on Reaction Time test compared with caffeine” value (healthy male volunteers [5]; stochastic, p<0.0001) of the same compound?
**A.** significantly better than the effect of caffeine

**Q.** What about the depressive scores [6] of the same compound?
**A.** reduce

**Q.** What about the “psychomotor and cognitive performance” value [6] of the same compound?
**A.** improve

**Q.** And the “agonist or antagonist activity” value (rat progestin receptor)?
**A.** no agonist or antagonist activity

**Q.** What about the “mortality, adverse symptoms, changes in behavior” value (male rats) of the same compound?
**A.** no mortality or adverse symptoms, or changes in behavior

**Q.** What about the “change in mass receptor potential (electrovomerogram)” value (vomeronasal organ; 60 pg dose to the vomeronasal organ, vs control (propylene glycol), men vs women) of the same compound?
**A.** higher amplitude in men

**Q.** And the skin temperature (vomeronasal organ; both men and women, more pronounced in men (FIGS. 6G and 6H))?
**A.** increase

**Q.** What about the electrovomerogram (vomeronasal organ; [12]) of the same compound?
**A.** increase

**Q.** And the α-cortical activity (vomeronasal organ; [12])?
**A.** increase

**Q.** And the skin temperature (vomeronasal organ; men, vs control (FIG. 4C))?
**A.** increase

**Q.** And the integrated electrovomerogram (vomeronasal organ; men, vs control)?
**A.** increase

**Q.** And the skin resistance (vomeronasal organ; men, vs control)?
**A.** decrease

**Q.** And the electrodermal activity (vomeronasal organ; men)?
**A.** decrease

**Q.** What about the “agonist or antagonist activity” value (rat androgen receptor) of the same compound?
**A.** no agonist or antagonist activity

**Q.** What about the “genotoxicity: mutagenic or clastogenic potential” value [7] of the same compound?
**A.** no evidence of mutagenic or clastogenic potential

**Q.** What about the “psychomotor and cognitive performance” value (subjects with ADHD) of the same compound?
**A.** improve

**Q.** And the depressive scores (subjects with MDD)?
**A.** reduce beyond that of the escitalopram alone

**Q.** And the “psychomotor and cognitive performance” value (subjects with MDD)?
**A.** improve

**Q.** What about the “time to improvement in psychomotor and cognitive performance” value [8] of the same compound?
**A.** ≤ 15 min

**Q.** And the “time to initial physiological response” value [8]?
**A.** within a minute

**Q.** And the “genotoxicity: mutagenic or clastogenic potential” value (bone marrow)?
**A.** no evidence of mutagenic or clastogenic potential

**Q.** What about the electrotonic depolarization [9] of the same compound?
**A.** electrotonic depolarization

**Q.** And the “agonist or antagonist activity” value (rat estrogen receptor)?
**A.** no agonist or antagonist activity

**Q.** What about the “psychomotor and cognitive performance” value [10] of the same compound?
**A.** improve

**Q.** And the “psychomotor and cognitive performance” value [11]?
**A.** improve
